{"source": "patent US20250221405A1", "about": "“ROOT NODULE FORMATION-PROMOTING COMPOSITION, AND ROOT HAIR FORMATION-PROMOTING COMPOSITION” (KANEKA CORPORATION, priority 2022, published 2025)", "key": {"soybeans (Fukuyutaka) [1]": {"test_system": "soybeans (Fukuyutaka)", "assay": "Experimental Example 3: seed coating with biosurfactant and/or KVP, number of root nodules", "assay_type": "in vivo, soybean", "details": "Table 3-1", "protocol": "A solution of SF, SL, or RL and/or KVP dissolved in water (a composition for promoting root nodule formation) as the following amount in each of the following treatments was prepared. The seeds of soybeans (Fukuyutaka) were coated using the solution in an amount of 800 μL/100 g seed to obtain coated seeds.\nA 9 cm poly pot was filled with culture soil and seeded with three coated seeds in each pot.\nAfter seeding, the coated seeds were cultivated in a greenhouse set at 28° C. during the day (14h) and 18° C. at night (10h).\nSeven days after the seeding, the soybeans in each pot were thinned to one plant, and each pot was irrigated with 4.3 mL of a mixture of rhizobium materials (rhizobium and azospirillum) mixed with water at a proportion of 10 g/L.\n(§1) Twenty-one days after the irrigation, the roots were washed with water so as not to remove root nodules, the culture soil was removed, and then, the root nodules formed on the roots were collected.\n(§2) After the seeding, each pot was fertilized with ½ Hoagland solution (50 mL) once a week. In addition, experiments were conducted on eight pots (eight plants) in each treatment.\nA plurality of experiments were conducted by changing the type of the composition for promoting root nodule formation and the like. Tables 3-1 and 3-2 show the amounts of SF, SL, or RL and/or KVP in the composition for promoting root nodule formation and the investigation result of the number of root nodules. Note that the number of root nodules is indicated by a relative value with Tl taken as 100, with a numerical value in parentheses indicating the average number of root nodules actually measured (pieces/plant)."}, "soybeans (Fukuyutaka) [2]": {"test_system": "soybeans (Fukuyutaka)", "assay": "Experimental Example 4: soil irrigation with biosurfactant and/or KVP, root nodule number and weight, root weight", "assay_type": "in vivo, soybean", "details": "with rhizobium materials", "protocol": "For each of the following treatments, to a mixture of rhizobium materials (rhizobium and azospirillum) mixed with water at a proportion of 10 g/L, SF, SL, or RL was added in the following amount to prepare a solution comprising the rhizobium materials and SF, SL, or RL (a composition for promoting root nodule formation).\nA 9 cm poly pot was filled with sterilized fertilizer-free culture soil (Heiwa) and seeded three seeds of soybeans (Fukuyutaka) in each pot.\nAfter seeding, the seeds were cultivated in a greenhouse set at 28° C. during the day (14h) and 18° C. at night (10h).\nSeven days after the seeding, the soybeans in each pot were thinned to one plant, and each pot was irrigated with 4.3 ml of the composition for promoting root nodule formation (in the treatment T1, a mixture of rhizobium materials (rhizobium and azospirillum) mixed with water at a proportion of 10 g/L).\nas §1, §2\nA plurality of experiments were conducted by changing the type of the composition for promoting root nodule formation and the like. Tables 4-1 and 4-2 show the date of seeding, the date of irrigating, the date of investigating the number of root nodules, the composition for promoting root nodule formation, and the investigation result of the number of root nodules. Note that the number of root nodules is indicated by a relative value with Tl taken as 100, with a numerical value in parentheses indicating the average number of root nodules actually measured (pieces/plant). In addition, fresh root nodule weight means the weight of root nodules before drying on the day of collection and is indicated by a relative value with Tl taken as 100. Dried underground part weight means the weight of roots dried for 48 hours at 80° C. and indicated by a relative value with Tl taken as 100."}, "[3]": {"details": "seed coating SF 0.5 g/t seed (diluted 16000 times)"}, "[4]": {"details": "seed coating SF 5 g/t seed (diluted 1600 times)"}, "[5]": {"details": "Table 4-1, single agent diluted 1000 times"}, "[6]": {"details": "Table 4-1, single agent diluted 5000 times"}, "[7]": {"details": "Table 4-1, single agent diluted 10000 times"}}}
{"substance": "surfactin Na [SF]", "values": [{"measurement": "Number of Root Nodules, average number actually measured", "setting": "soybeans (Fukuyutaka) [1]; [3]", "value": 25.3, "unit": "pieces/plant"}, {"measurement": "Number of Root Nodules, relative value with T1 taken as 100", "setting": "soybeans (Fukuyutaka) [1]; [3]", "value": 109}, {"measurement": "Number of Root Nodules, average number actually measured", "setting": "soybeans (Fukuyutaka) [1]; [4]", "value": 26.9, "unit": "pieces/plant"}, {"measurement": "Number of Root Nodules, relative value with T1 taken as 100", "setting": "soybeans (Fukuyutaka) [1]; [4]", "value": 116}, {"measurement": "Dried Underground Part Weight, relative value with T1 taken as 100", "setting": "soybeans (Fukuyutaka) [2]; [5]", "value": 101}, {"measurement": "Fresh Root Nodule Weight, relative value with T1 taken as 100", "setting": "soybeans (Fukuyutaka) [2]; [5]", "value": 124}, {"measurement": "Number of Root Nodules, average number actually measured", "setting": "soybeans (Fukuyutaka) [2]; [5]", "value": 19.6, "unit": "pieces/plant"}, {"measurement": "Number of Root Nodules, relative value with T1 taken as 100", "setting": "soybeans (Fukuyutaka) [2]; [5]", "value": 114}, {"measurement": "Dried Underground Part Weight, relative value with T1 taken as 100", "setting": "soybeans (Fukuyutaka) [2]; [6]", "value": 103}, {"measurement": "Fresh Root Nodule Weight, relative value with T1 taken as 100", "setting": "soybeans (Fukuyutaka) [2]; [6]", "value": 121}, {"measurement": "Number of Root Nodules, average number actually measured", "setting": "soybeans (Fukuyutaka) [2]; [6]", "value": 19.0, "unit": "pieces/plant"}, {"measurement": "Number of Root Nodules, relative value with T1 taken as 100", "setting": "soybeans (Fukuyutaka) [2]; [6]", "value": 110}, {"measurement": "Dried Underground Part Weight, relative value with T1 taken as 100", "setting": "soybeans (Fukuyutaka) [2]; [7]", "value": 99}, {"measurement": "Fresh Root Nodule Weight, relative value with T1 taken as 100", "setting": "soybeans (Fukuyutaka) [2]; [7]", "value": 107}, {"measurement": "Number of Root Nodules, average number actually measured", "setting": "soybeans (Fukuyutaka) [2]; [7]", "value": 18.0, "unit": "pieces/plant"}, {"measurement": "Number of Root Nodules, relative value with T1 taken as 100", "setting": "soybeans (Fukuyutaka) [2]; [7]", "value": 104}]}
